Data reported in patent US20240383904A1, “HETEROCYCLIC COMPOUNDS” (Hoffmann-La Roche Inc., priority 2021, published 2024).

Molecular target: T1, MAGL (Homo sapiens, UniProt Q99685)
T1 sequence (Q99685 1-303): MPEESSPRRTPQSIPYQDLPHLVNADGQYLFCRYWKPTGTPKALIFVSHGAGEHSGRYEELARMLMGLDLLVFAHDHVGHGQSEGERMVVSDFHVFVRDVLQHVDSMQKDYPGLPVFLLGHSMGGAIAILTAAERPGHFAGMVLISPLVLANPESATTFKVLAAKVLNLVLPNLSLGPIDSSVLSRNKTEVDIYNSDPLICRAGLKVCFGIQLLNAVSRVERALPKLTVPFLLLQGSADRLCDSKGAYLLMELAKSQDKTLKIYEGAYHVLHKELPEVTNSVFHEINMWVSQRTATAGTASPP
Assay: 2-AG assay: MAGL inhibitory activity by hydrolysis of 2-arachidonoylglycerol to arachidonic acid, followed by mass spectrometry
Type: biochemical
Conditions: 15 min preincubation, 30 min reaction at RT, 8 μM 2-arachidonoylglycerol

| IC50 | Structure (SMILES) |
| --- | --- |
| 3.79 nM | O=C1NC2(CO1)CN(C(=O)N1CC3(CC(c4ccc(C(F)(F)F)nc4)C3)C1)C2 [Example 79, 2-[6-[6-(trifluoromethyl)-3-pyridyl]-2-azaspiro[3.3]heptane-2-carbonyl]-7-oxa-2,5-diazaspiro[3.4]octan-6-one] |
| 6.19 nM | O=C1NC2(CO1)CN(C(=O)N1CC3(CC(N4CC(C(F)(F)F)C4)C3)C1)C2 [Example 80, 2-[6-[3-(trifluoromethyl)azetidin-1-y1]-2-azaspiro[3.3]heptane-2-carbonyl]-7-oxa-2,5-diazaspiro[3.4]octan-6-one] |
| 7.62 nM | O=C1NC2(CO1)CN(C(=O)N1CC3(CC(N4CC(CC(F)(F)F)C4)C3)C1)C2 [Example 81, 2-[6-[3-(2,2,2-trifluoroethyl)azetidin-1-y1]-2-azaspiro[3.3]heptane-2-carbonyl]-7-oxa-2,5-diazaspiro[3.4]octan-6-one] |
| 5.58 nM | O=C1CCC2(CN(C(=O)N3CC4(CCN(Cc5ccc(S(=O)(=O)C(F)(F)F)cc5)CC4)C3)C2)N1 [Example 82, 2-[7-(4-triflylbenzyl)-2,7-diazaspiro[3.5]nonane-2-carbonyl]-2,5-diazaspiro[3.4]octan-6-one] |
| 24.2 nM | O=C1COCC2(CN(C(=O)N3CC4(CCN(Cc5ccc(S(=O)(=O)C(F)(F)F)cc5)CC4)C3)C2)N1 [Example 83, 2-[7-(4-triflylbenzyl)-2,7-diazaspiro[3.5]nonane-2-carbonyl]-8-oxa-2,5-diazaspiro[3.5]nonan-6-one] |
| 0.99 nM | O=C1NC2(CO1)CN(C(=O)N1CC3(CCN(Cc4ccc(S(=O)(=O)C(F)(F)F)cc4)CC3)C1)C2 [Example 84, 2-[7-(4-triflylbenzyl)-2,7-diazaspiro[3.5]nonane-2-carbonyl]-7-oxa-2,5-diazaspiro[3.4]octan-6-one] |
| 0.94 nM | O=C1NC2(CO1)CN(C(=O)N1CC3(CN(Cc4ccc(S(=O)(=O)C(F)(F)F)cc4)C3)C1)C2 [Example 85, 2-[6-(4-triflylbenzyl)-2,6-diazaspiro[3.3]heptane-2-carbonyl]-7-oxa-2,5-diazaspiro[3.4]octan-6-one] |
| 984 nM | O=C1COCC2(CN(C(=O)N3CC4(C3)CN(S(=O)(=O)c3cccc(OC(F)(F)F)c3)C4)C2)N1 [Example 86, 2-[2-[3-(trifluoromethoxy)phenyl]sulfony1-2,6-diazaspiro[3.3]heptane-6-carbonyl]-8-oxa-2,5-diazaspiro[3.5]nonan-6-one] |
| 6.42 nM | O=C1COCC2(CN(C(=O)N3CC4(CCC(Cc5ccc(C(F)(F)F)cn5)CC4)C3)C2)N1 [Example 87, 2-[7-[[5-(trifluoromethyl)-2-pyridyl]methyl]-2-azaspiro[3.5]nonane-2-carbonyl]-8-oxa-2,5-diazaspiro[3.5]nonan-6-one] |
| 13.5 nM | O=C1COCC2(CN(C(=O)N3CC4(CCC(OCC5(C(F)(F)F)CC5)CC4)C3)C2)N1 [Example 88, 2-[7-[[1-(trifluoromethyl)cyclopro-pyl]methoxy]-2-azaspiro[3.5]nonane-2-carbonyl]-8-oxa-2,5-diazaspiro[3.5]nonan-6-one] |
| 29.7 nM | O=C1COCC2(CN(C(=O)N3CC4(CC(CNC5(C(F)(F)F)CC5)C4)C3)C2)N1 [Example 89, 2-[6-[[[1-(trifluoromethyl)cyclopro-pyl]amino]methyl]-2-azaspiro[3.3]heptane-2-carbonyl]-8-oxa-2,5-diazaspiro[3.5]nonan-6-one] |
| 19.1 nM | O=C1CCC2(CN(C(=O)N3CCC4(CC3)CN(Cc3ccc(C(F)(F)F)cc3F)C4)C2)N1 [Example 90, 2-[2-[2-fluoro-4-(trifluoromethyl)benzyl]-2,7-diazaspiro[3.5]nonane-7-carbonyl]-2,5-diazaspiro[3.4]octan-6-one] |
| 635 nM | O=C1NC2(CCO1)CN(C(=O)N1CCC3(CC1)CN(Cc1ccc(C(F)(F)F)cc1F)C3)C2 [Example 91, 2-[2-[2-fluoro-4-(trifluoromethyl)benzyl]-2,7-diazaspiro[3.5]nonane-7-carbonyl]-7-oxa-2,5-diazaspiro[3.5]nonan-6-one] |
| 0.65 nM | O=C1NC2(CO1)CN(C(=O)N1CCC3(CC1)CN(Cc1ccc(C(F)(F)F)cc1F)C3)C2 [Example 92, 2-[2-[2-fluoro-4-(trifluoromethyl)benzyl]-2,7-diazaspiro[3.5]nonane-7-carbonyl]-7-oxa-2,5-diazaspiro[3.4]octan-6-one] |
| 142 nM | O=C1NCC2(CN(C(=O)N3CCC4(CC3)CN(Cc3ccc(C(F)(F)F)cc3F)C4)C2)N1 [Example 93, 2-[2-[2-fluoro-4-(trifluoromethyl)benzyl]-2,7-diazaspiro[3.5]nonane-7-carbonyl]-2,5,7-triazaspiro[3.4]octan-6-one] |
| 1.08 nM | O=C1NC2(CO1)CN(C(=O)N1CC3(CC(NCc4ccc(C(F)(F)F)cc4F)C3)C1)C2 [Example 94] |
| 0.37 nM | O=C1NC2(CO1)CN(C(=O)N1CC3(CCC(Nc4ccc(C(F)(F)F)cn4)CC3)C1)C2 [Example 95, 2-[7-[[5-(trifluoromethyl)-2-pyridyl]amino]-2-azaspiro[3.5]nonane-2-carbonyl]-7-oxa-2,5-diazaspiro[3.4]octan-6-one] |

| IC50 | Structure (SMILES) |
| --- | --- |
| 1.88 nM | CN(c1cnc(C(F)(F)F)cn1)C1CCC2(CC1)CN(C(=O)N1CC3(COC(=O)N3)C1)C2 [Example 96, 2-[7-[methyl-[5-(trifluoromethyl)pyrazin-2-yl]amino]-2-azaspiro[3.5]nonane-2-carbonyl]-7-oxa-2,5-diazaspiro[3.4]octan-6-one] |
| 0.15 nM | O=C1NC2(CO1)CN(C(=O)N1CC3(CCC(Cc4ccc(Cl)cn4)CC3)C1)C2 [Example 97, 2-[7-[(5-chloro-2-pyridyl)methyl]-2-azaspiro[3.5]nonane-2-carbonyl]-7-oxa-2,5-diazaspiro[3.4]octan-6-one] |
| 1.75 nM | O=C1NC2(CO1)CN(C(=O)N1CC3(CCC(Nc4cnc(C(F)(F)F)cn4)CC3)C1)C2 [Example 98, 2-[7-[[5-(trifluoromethyl)pyrazin-2-yl]amino]-2-azaspiro[3.5]nonane-2-carbonyl]-7-oxa-2,5-diazaspiro[3.4]octan-6-one] |
| 3.09 nM | CS(=O)(=O)c1cc(F)ccc1OC1CCC2(CC1)CN(C(=O)N1CC3(COC(=O)N3)C1)C2 [Example 99, 2-[7-(4-fluoro-2-mesyl-phenoxy)-2-azaspiro[3.5]nonane-2-carbonyl]-7-oxa-2,5-diazaspiro[3.4]octan-6-one] |
| 0.18 nM | O=C1NC2(CO1)CN(C(=O)N1CC3(CCC(Cc4ccc(C(F)(F)F)nc4)CC3)C1)C2 [Example 101, 2-[7-[[6-(trifluoromethyl)-3-pyridyl]methyl]-2-azaspiro[3.5]nonane-2-carbonyl]-7-oxa-2,5-diazaspiro[3.4]octan-6-one] |
| 10.8 nM | O=C1CCC2(CN(C(=O)N3CC4(CCC(Cc5cnc(C(F)(F)F)cn5)CC4)C3)C2)N1 [Example 102, 2-[7-[[5-(trifluoromethyl)pyrazin-2-yl]methyl]-2-azaspiro[3.5]nonane-2-carbonyl]-2,5-diazaspiro[3.4]octan-6-one] |
| 0.28 nM | O=C1NC2(CO1)CN(C(=O)N1CC3(CCC(Cc4ncc(F)cc4F)C3)C1)C2 (stereo not drawn) [Example 103, 2-[6-[(3,5-difluoro-2-pyridyl)methyl]-2-azaspiro[3.4]octane-2-carbonyl]-7-oxa-2,5-diazaspiro[3.4]octan-6-one] |
| 0.05 nM | O=C1NC2(CO1)CN(C(=O)N1CC3(CCC(Cc4ccc(OC(F)F)nc4)CC3)C1)C2 [Example 105, 2-[7-[[6-(difluoromethoxy)-3-pyridyl]methyl]-2-azaspiro[3.5]nonane-2-carbonyl]-7-oxa-2,5-diazaspiro[3.4]octan-6-one] |
| 0.05 nM | O=C1NC2(CO1)CN(C(=O)N1CC3(CCC(Oc4cc(Cl)ccc4Cl)CC3)C1)C2 [Example 106, 2-[7-(2,5-dichlorophenoxy)-2-azaspiro[3.5]nonane-2-carbonyl]-7-oxa-2,5-diazaspiro[3.4]octan-6-one] |
| 0.08 nM | O=C1NC2(CO1)CN(C(=O)N1CC3(CC(c4ccc(C(F)(F)F)cc4F)C3)C1)C2 [Example 107] |
| 0.18 nM | O=C1NC2(CO1)CN(C(=O)N1CC3(CCC(Cc4ncc(F)cc4F)CC3)C1)C2 [Example 108, 2-[7-[(3,5-difluoro-2-pyridyl)methyl]-2-azaspiro[3.5]nonane-2-carbonyl]-7-oxa-2,5-diazaspiro[3.4]octan-6-one] |
| 0.21 nM | CS(=O)(=O)c1ccc(CC2CCC3(C2)CN(C(=O)N2CC4(COC(=O)N4)C2)C3)cc1C(F)(F)F (stereo not drawn) [Example 109, 2-[6-[4-mesyl-3-(trifluoromethyl)benzyl]-2-azaspiro[3.4]octane-2-carbonyl]-7-oxa-2,5-diazaspiro[3.4]octan-6-one] |
| 0.24 nM | O=C1NC2(CO1)CN(C(=O)N1CC3(CCC(Cc4ccc(C(F)(F)F)nc4)C3)C1)C2 (stereo not drawn) [Example 110, 2-[6-[[6-(trifluoromethyl)-3-pyridyl]methyl]-2-azaspiro[3.4]octane-2-carbonyl]-7-oxa-2,5-diazaspiro[3.4]octan-6-one] |
| 0.31 nM | O=C1NC2(CO1)CN(C(=O)N1CC3(CC[C@H](Cc4cnc(C(F)(F)F)cn4)C3)C1)C2 [Example 111, 2-[(6S)-6-[[5-(trifluoromethyl)pyrazin-2-yl]methyl]-2-azaspiro[3.4]octane-2-carbonyl]-7-oxa-2,5-diazaspiro[3.4]octan-6-one] |
| 0.57 nM | O=C1NC2(CO1)CN(C(=O)N1CC3(CCC(Cc4cnc(C(F)(F)F)cn4)CC3)C1)C2 [Example 112, 2-[7-[[5-(trifluoromethyl)pyrazin-2-yl]methyl]-2-azaspiro[3.5]nonane-2-carbonyl]-7-oxa-2,5-diazaspiro[3.4]octan-6-one] |
| 0.62 nM | O=C1NC2(CO1)CN(C(=O)N1CC3(CC[C@@H](Cc4cnc(C(F)(F)F)cn4)C3)C1)C2 [Example 113, 2-[(6R)-6-[[5-(trifluoromethyl)pyrazin-2-yl]methyl]-2-azaspiro[3.4]octane-2-carbonyl]-7-oxa-2,5-diazaspiro[3.4]octan-6-one] |
